Measurements from patent US10118935B2, “Melampomagnolide B dimers” (priority 2014, dated 2018).

How the values were obtained:
HS 578T = test: NCI 60 cell line five dose, Breast Cancer; conditions: HS 578T
MOLT-4 = test: NCI 60 cell line five dose, Leukemia
SK-OV-3 = test: NCI 60 cell line five dose, Ovarian Cancer
HOP-92 = test: NCI 60 cell line five dose, Non-Small Cell Lung Cancer
TK-10 = test: NCI 60 cell line five dose, Renal Cancer
UACC-257 = test: NCI 60 cell line five dose, Melanoma
HT29 = test: NCI 60 cell line five dose, Colon Cancer
DU-145 = test: NCI 60 cell line five dose, Prostate Cancer
NCI/ADR-RES = test: NCI 60 cell line five dose, Ovarian Cancer; conditions: NCI/ADR-RES
UO-31 = test: NCI 60 cell line five dose, Renal Cancer
ACHN = test: NCI 60 cell line five dose, Renal Cancer

Compound: C=C1C(=O)O[C@H]2[C@H]1CC/C(COC(=O)NCCCCCNC(=O)OC/C1=C/CC[C@@]3(C)O[C@H]3[C@H]3OC(=O)C(=C)[C@@H]3CC1)=C\CC[C@@]1(C)O[C@@H]21 [JVM 2-76, bis(((1aR,7aS,10aS,10bS,E)-1a-Methyl-8-methylene-9-oxo-1a,2,3,6,7,7a,8,9,10a,10b-decahydrooxireno[2′,3′:9,10]cyclodeca[1,2-b]furan-5-yl)methyl)pentane-1,5-diyldicarbamate]
- GI50 (HS 578T): 2910 nM
- TGI (HS 578T): 13.0 µM
- CC50 (HS 578T; read-out: LC50): > 100 µM
- GI50 (MOLT-4): 1480 nM
- TGI (MOLT-4): 9.29 µM
- CC50 (MOLT-4; read-out: LC50): > 100 µM
- GI50 (SK-OV-3): 5.99 µM
- TGI (SK-OV-3): 19.7 µM
- CC50 (SK-OV-3; read-out: LC50): 49.9 µM
- GI50 (HOP-92): 1300 nM
- TGI (HOP-92): 3.35 µM
- CC50 (HOP-92; read-out: LC50): 8.61 µM
- GI50 (TK-10): 1820 nM
- TGI (TK-10): 4.40 µM
- CC50 (TK-10; read-out: LC50): 11.8 µM
- GI50 (UACC-257): 2070 nM
- TGI (UACC-257): 7.46 µM
- CC50 (UACC-257; read-out: LC50): 42.4 µM
- GI50 (HT29): 510 nM
- TGI (HT29): 1.78 µM
- CC50 (HT29; read-out: LC50): 4.85 µM
- GI50 (DU-145): 3.06 µM
- TGI (DU-145): 9.55 µM
- CC50 (DU-145; read-out: LC50): 32.6 µM
- GI50 (HL-60(TB)): 310 nM
- TGI (HL-60(TB)): 1.71 µM
- CC50 (HL-60(TB); read-out: LC50): > 100 µM
- GI50 (NCI/ADR-RES): 70 µM
- TGI (NCI/ADR-RES): >100 µM
- CC50 (NCI/ADR-RES; read-out: LC50): > 100 µM
- GI50 (UO-31): 8.9 µM
- TGI (UO-31): 22.5 µM
- CC50 (UO-31; read-out: LC50): 52.3 µM
- GI50 (ACHN): 3.05 µM
- TGI (ACHN): 9.84 µM
- CC50 (ACHN; read-out: LC50): 35.4 µM
